Patent US8163724B2, “Glucocorticosteroids, processes for their preparation, pharmaceutical compositions containing them and their use in therapy” (AstraZeneca AB, priority 2007, dated 2012)

Biological target: T1, recombinant human GR (Homo sapiens, UniProt P04150)
T1 construct: purchased Panvera/Invitrogen P2812 (kit P2893)
T1 sequence (P04150 1-777): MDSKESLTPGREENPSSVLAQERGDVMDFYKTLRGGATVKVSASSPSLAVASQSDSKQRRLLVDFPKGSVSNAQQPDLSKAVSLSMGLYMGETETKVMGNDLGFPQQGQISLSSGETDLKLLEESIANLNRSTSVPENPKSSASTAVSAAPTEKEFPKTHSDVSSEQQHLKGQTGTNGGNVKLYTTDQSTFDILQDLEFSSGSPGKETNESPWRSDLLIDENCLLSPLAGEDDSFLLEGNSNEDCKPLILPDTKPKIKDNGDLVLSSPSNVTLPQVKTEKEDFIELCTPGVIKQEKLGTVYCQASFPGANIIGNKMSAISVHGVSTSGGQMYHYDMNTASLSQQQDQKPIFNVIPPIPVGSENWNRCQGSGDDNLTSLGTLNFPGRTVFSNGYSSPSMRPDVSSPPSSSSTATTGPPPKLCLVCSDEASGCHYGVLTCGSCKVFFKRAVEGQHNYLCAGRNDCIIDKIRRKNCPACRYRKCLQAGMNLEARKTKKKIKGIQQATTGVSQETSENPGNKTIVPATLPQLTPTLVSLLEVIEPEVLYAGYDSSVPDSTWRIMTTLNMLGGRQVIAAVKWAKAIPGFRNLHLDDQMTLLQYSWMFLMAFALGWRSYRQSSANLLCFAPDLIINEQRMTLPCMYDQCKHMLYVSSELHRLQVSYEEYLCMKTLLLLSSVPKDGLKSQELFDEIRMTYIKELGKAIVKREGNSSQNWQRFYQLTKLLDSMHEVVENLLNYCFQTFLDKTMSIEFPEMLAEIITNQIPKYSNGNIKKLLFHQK
Assay: Human Glucocorticoid Receptor (GR) Assay (fluorescence polarization, Panvera/Invitrogen kit)
Assay type: binding
Details: fluorescence polarization; GS Red tracer; 2 hours at room temperature; 100% control 10 μM Dexamethasone; read-out: Inhibition of GR binding, IC50
In short: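 Fluorescence polarization competition with recombinant GR and GS Red fluorescent ligand plus stabilizing peptide and DTT in potassium phosphate/sodium molybdate/EDTA buffer with DMSO. Incubated 2 hours at room temperature in the dark; 0% control DMSO, 100% control 10 μM dexamethasone.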

Row | SMILES | IC50 [nM]
1 | C[C@]12Cc3cnn(-c4ccc(F)c(CO)c4)c3C=C1CC[C@@H]1[C@@H]2[C@@H](O)C[C@@]2(C)[C@H]1CC[C@]2(OC(=O)c1ccco1)C(=O)SCC#N [Example 80, (1R,3aS,3bS,10aR,10bS,11S,12aS)-1-{[(Cyanomethyl)thio]carbonyl}-7-[4-fluoro-3-(hydroxymethyl)phenyl]-11-hydroxy-10a,12a-dimethyl-1,2,3,3a,3b,4,5,7,10,10a,10b,11,12,12a-tetradecahydrocyclopenta[5,6]naphtho[1,2]-indazol-1-yl furan-2-carboxylate] | 4.2
2 | C[C@]12Cc3cnn(-c4ccc(F)c(CO)c4)c3C=C1CC[C@@H]1[C@@H]2[C@@H](O)C[C@@]2(C)[C@H]1CC[C@]2(OC(=O)c1ccco1)C(=O)SCF [Example 81, (1R,3aS,3bS,10aR,10bS,11S,12aS)-7-[4-Fluoro-3-(hydroxymethyl)phenyl]-1-{[(fluoromethyl)thio]carbonyl}-11-hydroxy-10a,12a-dimethyl-1,2,3,3a,3b,4,5,7,10,10a,10b,11,12,12a-tetradecahydrocyclopenta[5,6]naphtho[1,2-f]indazol-1-yl furan-2-carboxylate] | 4.5
3 | CSCSC(=O)[C@@]1(OC(=O)c2ccco2)CC[C@H]2[C@@H]3CCC4=Cc5c(cnn5-c5ccc(F)cc5)C[C@]4(C)[C@H]3[C@@H](O)C[C@@]21C [Example 82, (1R,3aS,3bS,10aR,10bS,11S,12aS)-7-(4-Fluorophenyl)-11-hydroxy-10a,12a-dimethyl-1-({[(methylsulfanyl)methyl]sulfanyl}carbonyl)-1,2,3,3a,3b,4,5,7,10,10a,10b,11,12,12a-tetradecahydrocyclopenta[5,6]naphtho[1,2-f]indazol-1-yl furan-2-carboxylate] | 8.5
4 | C[C@]12Cc3cnn(-c4ccc(F)cc4)c3C=C1CC[C@@H]1[C@@H]2[C@@H](O)C[C@@]2(C)[C@H]1CC[C@]2(OC(=O)c1ccco1)C(=O)SCSC#N [Example 83, (1R,3aS,3bS,10aR,10bS,11S,12aS)-7-(4-Fluorophenyl)-11-hydroxy-10a,12a-dimethyl-1-{[(thiocyanatomethyl)sulfanyl]carbonyl}-1,2,3,3a,3b,4,5,7,10,10a,10b,11,12,12a-tetradecahydrocyclopenta[5,6]naphtho[1,2-f]indazol-1-yl furan-2-carboxylate] | 18
5 | C[C@]12Cc3cnn(-c4ccc(F)cc4)c3C=C1CC[C@@H]1[C@@H]2[C@@H](O)C[C@@]2(C)[C@H]1CC[C@]2(OC(=O)c1ccco1)C(=O)SCC(O)CO (stereo partly drawn) [Example 84, (1R,3aS,3bS,10aR,10bS,11S,12aS)-1-{[(2,3-Dihydroxypropyl)sulfanyl]carbonyl}-7-(4-fluorophenyl)-11-hydroxy-10a,12a-dimethyl-1,2,3,3a,3b,4,5,7,10,10a,10b,11,12,12a-tetradecahydrocyclopenta[5,6]naphtho[1,2-f]indazol-1-yl furan-2-carboxylate] | 5
6 | COCCCSC(=O)[C@@]1(OC(=O)c2ccco2)CC[C@H]2[C@@H]3CCC4=Cc5c(cnn5-c5ccc(F)cc5)C[C@]4(C)[C@H]3[C@@H](O)C[C@@]21C [Example 85, (1R,3aS,3bS,10aR,10bS,11S,12aS)-7-(4-Fluorophenyl)-11-hydroxy-{[(3-methoxypropyl)sulfanyl]carbonyl}-10a,12a-dimethyl-1,2,3,3a,3b,4,5,7,10,10a,10b,11,12,12a-tetradecahydrocyclopenta[5,6]naphtho[1,2-f]indazol-1-yl furan-2-carboxylate] | 6.3
7 | C[C@]12Cc3cnn(-c4ccc(F)cc4)c3C=C1CC[C@@H]1[C@@H]2[C@@H](O)C[C@@]2(C)[C@H]1CC[C@]2(OC(=O)c1ccco1)C(=O)SCCCC#N [Example 86, (1R,3aS,3bS,10aR,10bS,11S,12aS)-1-{[(3-Cyanopropyl)sulfanyl]carbonyl}-7-(4-fluorophenyl)-11-hydroxy-10a,12a-dimethyl-1,2,3,3a,3b,4,5,7,10,10a,10b,11,12,12a-tetradecahydrocyclopenta[5,6]naphtho[1,2-f]indazol-1-yl furan-2-carboxylate] | 3.5
8 | CC(=O)OCC(=O)CSC(=O)[C@@]1(OC(=O)c2ccco2)CC[C@H]2[C@@H]3CCC4=Cc5c(cnn5-c5ccc(F)cc5)C[C@]4(C)[C@H]3[C@@H](O)C[C@@]21C [Example 87, (1R,3aS,3bS,10aR,10bS,11S,12aS)-1-({[3-(Acetyloxy)-2-oxopropyl]sulfanyl}carbonyl)-7-(4-fluorophenyl)-11-hydroxy-10a,12a-dimethyl-1,2,3,3a,3b,4,5,7,10,10a,10b,11,12,12a-tetradecahydrocyclopenta[5,6]naphtho[1,2-f]indazol-1-yl furan-2-carboxylate] | 5.3
9 | C=C(CSC(=O)[C@@]1(OC(=O)c2ccco2)CC[C@H]2[C@@H]3CCC4=Cc5c(cnn5-c5ccc(F)cc5)C[C@]4(C)[C@H]3[C@@H](O)C[C@@]21C)OCOC [Example 88, (1R,3aS,3bS,10aR,10bS,11S,12aS)-7-(4-fluorophenyl)-11-hydroxy-1-({[2-(methoxymethoxy)prop-2-en-1-yl]sulfanyl}carbonyl)-10a,12a-dimethyl-1,2,3,3a,3b,4,5,7,10,10a,10b,11,12,12a-tetradecahydrocyclopenta[5,6]naphtho[1,2-f]indazol-1-yl furan-2-carboxylate] | 13
10 | CC(=O)CSC(=O)[C@@]1(OC(=O)c2ccco2)CC[C@H]2[C@@H]3CCC4=Cc5c(cnn5-c5ccc(F)cc5)C[C@]4(C)[C@H]3[C@@H](O)C[C@@]21C [Example 89, (1R,3aS,3bS,10aR,10bS,11S,12aS)-7-(4-Fluorophenyl)-11-hydroxy-10a,12a-dimethyl-1-{[(2-oxopropyl)sulfanyl]carbonyl}-1,2,3,3a,3b,4,5,7,10,10a,10b,11,12,12a-tetradecahydrocyclopenta[5,6]naphtho[1,2-f]indazol-1-yl furan-2-carboxylate] | 6.9
11 | C[C@]12Cc3cnn(-c4ccc(F)cc4)c3C=C1CC[C@@H]1[C@@H]2[C@@H](O)C[C@@]2(C)[C@H]1CC[C@]2(OC(=O)c1ccco1)C(=O)SCC(N)=O [Example 90, (1R,3aS,3bS,10aR,10bS,11S,12aS)-1-{[(2-Amino-2-oxoethyl)sulfanyl]carbonyl}-7-(4-fluorophenyl)-11-hydroxy-10a,12a-dimethyl-1,2,3,3a,3b,4,5,7,10,10a,10b,11,12,12a-tetradecahydrocyclopenta[5,6]naphtho[1,2-f]indazol-1-yl furan-2-carboxylate] | 4.6
12 | C[C@]12Cc3cnn(-c4ccc(F)cc4)c3C=C1CC[C@@H]1[C@@H]2[C@@H](O)C[C@@]2(C)[C@H]1CC[C@]2(OC(=O)c1ccco1)C(=O)SCCO [Example 91, (1R,3aS,3bS,10aR,10bS,11S,12aS)-7-(4-fluorophenyl)-11-hydroxy-1-{[(2-hydroxyethyl)sulfanyl]carbonyl}-10a,12a-dimethyl-1,2,3,3a,3b,4,5,7,10,10a,10b,11,12,12a-tetradecahydrocyclopenta[5,6]naphtho[1,2-f]indazol-1-yl furan-2-carboxylate] | 3.7
13 | C[C@]12Cc3cnn(-c4ccc(F)cc4)c3C=C1CC[C@@H]1[C@@H]2[C@@H](O)C[C@@]2(C)[C@H]1CC[C@]2(OC(=O)c1ccco1)C(=O)SCCCO [Example 92, (1R,3aS,3bS,10aR,10bS,11S,12aS)-7-(4-Fluorophenyl)-11-hydroxy-1-{[(3-hydroxypropyl)sulfanyl]carbonyl}-10a,12a-dimethyl-1,2,3,3a,3b,4,5,7,10,10a,10b,11,12,12a-tetradecahydrocyclopenta[5,6]naphtho[1,2-f]indazol-1-yl furan-2-carboxylate] | 4
14 | COCSC(=O)[C@@]1(OC(=O)c2ccco2)CC[C@H]2[C@@H]3CCC4=Cc5c(cnn5-c5ccc(F)cc5)C[C@]4(C)[C@H]3[C@@H](O)C[C@@]21C [Example 93, (1R,3aS,3bS,10aR,10bS,11S,12aS)-7-(4-Fluorophenyl)-11-hydroxy-1-{[(methoxymethyl)sulfanyl]carbonyl}-10a,12a-dimethyl-1,2,3,3a,3b,4,5,7,10,10a,10b,11,12,12a-tetradecahydrocyclopenta[5,6]naphtho[1,2-f]indazol-1-yl furan-2-carboxylate] | 5.6
15 | CC(=O)OCSC(=O)[C@@]1(OC(=O)c2ccco2)CC[C@H]2[C@@H]3CCC4=Cc5c(cnn5-c5ccc(F)cc5)C[C@]4(C)[C@H]3[C@@H](O)C[C@@]21C [Example 94, (1R,3aS,3bS,10aR,10bS,11S,12aS)-1-({[(Acetyloxy)methyl]sulfanyl}carbonyl)-7-(4-fluorophenyl)-11-hydroxy-10a,12a-dimethyl-1,2,3,3a,3b,4,5,7,10,10a,10b,11,12,12a-tetradecahydrocyclopenta[5,6]naphtho[1,2-f]indazol-1-yl furan-2-carboxylate] | 5.9
